Source: patent publication US20260250290A1 (BRISTOL-MYERS SQUIBB COMPANY, priority 2023, published 2026)

Target: T1, full length SGK1 (Homo sapiens, UniProt O00141)
T1 construct: 125 μM full length SGK1 (Life Technologies Part #PR7358A); purchased Life Technologies PR7358A
T1 sequence (O00141 1-431): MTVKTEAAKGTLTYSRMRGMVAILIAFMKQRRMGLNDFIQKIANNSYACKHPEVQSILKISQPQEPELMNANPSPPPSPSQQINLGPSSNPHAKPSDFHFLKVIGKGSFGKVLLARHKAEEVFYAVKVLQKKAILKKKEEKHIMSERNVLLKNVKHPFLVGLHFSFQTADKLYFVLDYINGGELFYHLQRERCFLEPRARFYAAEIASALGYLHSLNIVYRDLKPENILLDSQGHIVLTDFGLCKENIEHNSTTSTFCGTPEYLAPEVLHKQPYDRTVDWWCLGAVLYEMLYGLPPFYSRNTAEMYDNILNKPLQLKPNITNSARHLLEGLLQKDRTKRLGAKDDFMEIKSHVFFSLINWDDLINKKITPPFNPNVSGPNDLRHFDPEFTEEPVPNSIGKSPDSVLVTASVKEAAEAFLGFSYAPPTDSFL
Assay: SGK1 inhibition Assay A (Caliper LabChip electrophoretic separation of fluorescent peptide substrate and phosphorylated product)
Type: biochemical
Conditions: Assay A; 20 μM ATP, 40 min incubation; read-out: SGK1 IC50

In order of falling IC50:
1. Nc1ncnn2c(-c3cncnc3)cc(N3CCC[C@@H](NC(=O)c4sc(C(F)F)cc4N4CC5(COC5)C4)C3)c12 [Example 314, (R)—N-(1-(4-amino-7-(pyrimidin-5-yl)pyrrolo[2,1-f][1,2,4]triazin-5-yl)piperidin-3-yl)-5-(difluoromethyl)-3-(2-oxa-6-azaspiro[3.3]heptan-6-yl)thiophene-2-carboxamide]  374 nM
2. CC(=O)N1CC=C(c2cc(N3CCC[C@@H](NC(=O)c4sc(C(F)F)cc4N4CC5(COC5)C4)C3)c3c(N)ncnn23)C1 [Example 315, (R)-N-(1-(7-(1-acetyl-2,5-dihydro-1H-pyrrol-3-yl)-4-aminopyrrolo[2,1-f][1,2,4]triazin-5-yl)piperidin-3-yl)-5-(difluoromethyl)-3-(2-oxa-6-azaspiro[3.3]heptan-6-yl)thiophene-2-carboxamide]  65 nM
3. COC(=O)N1CC=C(c2cc(N3CCC[C@@H](NC(=O)c4sc(C(F)F)cc4N4CC5(COC5)C4)C3)c3c(N)ncnn23)C1 [Example 317, Methyl (R)-3-(4-amino-5-(3-(5-(difluoromethyl)-3-(2-oxa-6-azaspiro[3.3]heptan-6-yl)thiophene-2-carboxamido)piperidin-1-yl)pyrrolo[2,1-f][1,2,4]triazin-7-yl)-2,5-dihydro-1H-pyrrole-1-carboxylate]  34 nM
4. Cc1cc(-c2cc(N3CCC[C@@H](NC(=O)c4sc(C(F)F)cc4OCCN(C)C)C3)c3c(N)ncnn23)cc(C(F)F)n1 [Example 312, (R)-N-(1-(4-amino-7-(2-(difluoromethyl)-6-methylpyridin-4-yl)pyrrolo[2,1-f] [1,2,4]triazin-5-yl)piperidin-3-yl)-5-(difluoromethyl)-3-(2-(dimethylamino)ethoxy)thiophene-2-carboxamide]  32 nM
5. Nc1ncnn2c(-c3ccc(=O)n(CC(F)F)c3)cc(N3CCC[C@@H](NC(=O)c4sc(C(F)F)cc4N4CC5(COC5)C4)C3)c12 [Example 316, (R)-N-(1-(4-amino-7-(1-(2,2-difluoroethyl)-6-oxo-1,6-dihydropyridin-3-yl)pyrrolo[2,1-f][1,2,4]triazin-5-yl)piperidin-3-yl)-5-(difluoromethyl)-3-(2-oxa-6-azaspiro[3.3]heptan-6-yl)thiophene-2-carboxamide]  31 nM
6. CN(C)CCOc1cc(C(F)F)sc1C(=O)N[C@@H]1CCCN(c2cc(-c3cncnc3)n3ncnc(N)c23)C1 [Example 307, (R)-N-(1-(4-amino-7-(pyrimidin-5-yl)pyrrolo[2,1-f] [1,2,4]triazin-5-yl)piperidin-3-yl)-5-(difluoromethyl)-3-(2-(dimethylamino)ethoxy)thiophene-2-carboxamide]  27 nM
7. Nc1ncnn2c(-c3ccnc(C(F)F)c3)cc(N3CCC[C@@H](NC(=O)c4sc(Cl)cc4OCCN4CC(F)(F)C4)C3)c12 [Example 297]  19 nM
8. CN(C)CCOc1cc(C(F)F)sc1C(=O)N[C@@H]1CCCN(c2cc(-c3ccc(=O)n(CC(F)F)c3)n3ncnc(N)c23)C1 [Example 309, (R)-N-(1-(4-amino-7-(1-(2,2-difluoroethyl)-6-oxo-1,6-dihydropyridin-3-yl)pyrrolo[2,1-f][1,2,4]triazin-5-yl)piperidin-3-yl)-5-(difluoromethyl)-3-(2-(dimethylamino)ethoxy)thiophene-2-carboxamide]  17 nM
9. CC(=O)N1CC=C(c2cc(N3CCC[C@@H](NC(=O)c4sc(C(F)F)cc4OCCN(C)C)C3)c3c(N)ncnn23)C1 [Example 305, (R)-N-(1-(7-(1-acetyl-2,5-dihydro-1H-pyrrol-3-yl)-4-aminopyrrolo[2,1-f][1,2,4]triazin-5-yl)piperidin-3-yl)-5-(difluoromethyl)-3-(2-(dimethylamino)ethoxy)thiophene-2-carboxamide]  15 nM
10. CC(=O)N1CC=C(c2cc(N3CCC[C@@H](NC(=O)c4sc(Cl)cc4OCCN4CCNCC4)C3)c3c(N)ncnn23)C1 [Example 298, (R)-N-(1-(7-(1-acetyl-2,5-dihydro-1H-pyrrol-3-yl)-4-aminopyrrolo[2,1-f][1,2,4]triazin-5-yl)piperidin-3-yl)-5-chloro-3-(2-(piperazin-1-yl)ethoxy)thiophene-2-carboxamide]  14 nM
11. CC(=O)N1CC=C(c2cc(N3CCC[C@@H](NC(=O)c4sc(Cl)cc4OCCNCC(F)F)C3)c3c(N)ncnn23)C1 [Example 301, (R)-N-(1-(7-(1-acetyl-2,5-dihydro-1H-pyrrol-3-yl)-4-aminopyrrolo[2,1-f][1,2,4]triazin-5-yl)piperidin-3-yl)-5-chloro-3-(2-((2,2-difluoroethyl)amino)ethoxy)thiophene-2-carboxamide]  14 nM
12. C[C@@H]1CN(CCOc2cc(Cl)sc2C(=O)N[C@@H]2CCCN(c3cc(-c4ccnc(C(F)F)c4)n4ncnc(N)c34)C2)C[C@H](C)O1 [Example 296, N-((R)-1-(4-amino-7-(2-(difluoromethyl)pyridin-4-yl)pyrrolo[2,1-f][1,2,4]triazin-5-yl)piperidin-3-yl)-5-chloro-3-(2-((25,6R)-2,6-dimethylmorpholino)ethoxy)thiophone-2-carboxamide]  12 nM
13. CN(C)CCOc1cc(C(F)F)sc1C(=O)N[C@@H]1CCCN(c2cc(-c3ccc(C(N)=O)nc3)n3ncnc(N)c23)C1 [Example 306, (R)-5-(4-amino-5-(3-(5-(difluoromethyl)-3-(2-(dimethylamino)ethoxy)thiophene-2-carboxamido)piperidin-1-yl)pyrrolo[2,1-f] [1,2,4]triazin-7-yl)picolinamide]  11 nM
14. COC(=O)N1CC=C(c2cc(N3CCC[C@@H](NC(=O)c4sc(C(F)F)cc4OCCN(C)C)C3)c3c(N)ncnn23)C1 [Example 303, Methyl (R)-3-(4-amino-5-(3-(5-(difluoromethyl)-3-(2-(dimethylamino)ethoxy)thiophene-2-carboxamido)piperidin-1 - yl)pyrrolo [2,1-f][1,2,4]triazin-7-yl)-2,5-dihydro-1H-pyrrole-1-carboxylate]  10 nM
15. Nc1ncnn2c(-c3ccnc(C(F)F)c3)cc(N3CCC[C@@H](NC(=O)c4sc(Cl)cc4OCCN4CCC(F)(F)C4)C3)c12 [Example 294, (R)-N-(1-(4-amino-7-(2-(difluoromethyl)pyridin-4-yl)pyrrolo[2,1-f][1,2,4]triazin-5-yl)piperidin-3-yl)-5-chloro-3-(2-(3,3-difluoropyrrolidin-1-yl)ethoxy)thiophene-2-carboxamide]  7 nM
16. CC1CN(CCOc2cc(Cl)sc2C(=O)N[C@@H]2CCCN(c3cc(-c4ccnc(C(F)F)c4)n4ncnc(N)c34)C2)CCO1 (stereo partly drawn) [Example 295, N-((R)-1-(4-amino-7-(2-(difluoromethyl)pyridin-4-yl)pyrrolo[2,1-f][1,2,4]triazin-5-yl)piperidin-3-yl)-5-chloro-3-(2-(2-methylmorpholino)ethoxy) thiophene-2-carboxamide]  7 nM
17. CC(=O)N1CC=C(c2cc(N3CCC[C@@H](NC(=O)c4sc(Cl)cc4OCCN4CCC(C)(O)CC4)C3)c3c(N)ncnn23)C1 [Example 299, (R)-N-(1-(7-(1-acetyl-2,5-dihydro-1H-pyrrol-3-yl)-4-aminopyrrolo[2,1-f][1,2,4]triazin-5-yl)piperidin-3-yl)-5-chloro-3-(2-(4-hydroxy-4-methylpiperidin-1-yl)ethoxy)thiophene-2-carboxamide]  7 nM
18. CN(C)CCOc1cc(C(F)F)sc1C(=O)N[C@@H]1CCCN(c2cc(-c3ccc(C(N)=O)c(F)c3)n3ncnc(N)c23)C1 [Example 302, (R)—N-(1-(4-amino-7-(4-carbamoyl-3-fluorophenyl)pyrrolo[2,1-f][1,2,4]triazin-5-yl)piperidin-3-yl)-5-(difluoromethyl)-3-(2-(dimethylamino)ethoxy)thiophene-2-carboxamide]  4 nM
19. CN(C)CCOc1cc(C(F)F)sc1C(=O)N[C@@H]1CCCN(c2cc(-c3ccc(C#N)c(F)c3)n3ncnc(N)c23)C1 [Example 313]  4 nM
20. CN(C)CCOc1cc(C(F)F)sc1C(=O)N[C@@H]1CCCN(c2cc(-c3ccnc(N)c3)n3ncnc(N)c23)C1 [Example 304, (R)-N-(1-(4-amino-7-(2-aminopyridin-4-yl)pyrrolo [2,1-f][1,2,4]triazin-5-yl)piperidin-3-yl)-5-(difluoromethyl)-3-(2-(dimethylamino)ethoxy) thiophene-2-carboxamide]  3 nM
21. CN(C)CCOc1cc(C(F)F)sc1C(=O)N[C@@H]1CCCN(c2cc(-c3ccc(C#N)nc3)n3ncnc(N)c23)C1 [Example 310, (R)-N-(1-(4-amino-7-(6-cyanopyridin-3-yl)pyrrolo[2,1-f] [1,2,4]triazin-5-yl)piperidin-3-yl)-5-(difluoromethyl)-3-(2-(dimethylamino)ethoxy)thiophene-2-carboxamide]  3 nM
22. CC(=O)N1CC=C(c2cc(N3CCC[C@@H](NC(=O)c4sc(Cl)cc4OCCN4CCC(C)(N)CC4)C3)c3c(N)ncnn23)C1 [Example 300, (R)-N-(1-(7-(1-acetyl-2,5-dihydro-1H-pyrrol-3-yl)-4-aminopyrrolo[2,1-f][1,2,4]triazin-5-yl)piperidin-3-yl)-3-(2-(4-amino-4-methylpiperidin-1-yl)ethoxy)-5-chlorothiophene-2-carboxamide]  1 nM
23. CN(C)CCOc1cc(C(F)F)sc1C(=O)N[C@@H]1CCCN(c2cc(-c3ccc(C=O)cc3)n3ncnc(N)c23)C1 [Example 308, (R)-N-(1-(4-amino-7-(4-formylphenyl)pyrrolo[2,1-f][1,2,4]triazin-5-yl)piperidin-3-yl)-5-(difluoromethyl)-3-(2-(dimethylamino)ethoxy)thiophene-2-carboxamide]  1 nM
